According to patent US10189841B2, “Purinones as ubiquitin-specific protease 1 inhibitors” (Forma Therapeutics, Inc., priority 2015, dated 2019):

biological target: USP1 (construct USP1 (I-785, GG670, 671AA)/UAF1 (I-677)-Flag) (Homo sapiens (Human), UniProt O94782, G670A/G671A); test: Ubiquitin-Rhodamine 110 assay for USP1 activity; format: biochemical; conditions: USP1/UAF1 25 pM, Ub-Rh110 25 nM, 30 min preincubation
Method in brief: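 Ub-Rh110 (25 nM, ≪Km) cleavage read at ex 485/em 535 in Tris pH 8.0, CaCl2, GSH, Prionex, Triton X-100. The screen used 10 µM compound, 100 pM USP1/UAF1 and 45 min at RT.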

Sequence of USP1 (construct USP1 (I-785, GG670, 671AA)/UAF1 (I-677)-Flag) (O94782 whole entry G670A/G671A): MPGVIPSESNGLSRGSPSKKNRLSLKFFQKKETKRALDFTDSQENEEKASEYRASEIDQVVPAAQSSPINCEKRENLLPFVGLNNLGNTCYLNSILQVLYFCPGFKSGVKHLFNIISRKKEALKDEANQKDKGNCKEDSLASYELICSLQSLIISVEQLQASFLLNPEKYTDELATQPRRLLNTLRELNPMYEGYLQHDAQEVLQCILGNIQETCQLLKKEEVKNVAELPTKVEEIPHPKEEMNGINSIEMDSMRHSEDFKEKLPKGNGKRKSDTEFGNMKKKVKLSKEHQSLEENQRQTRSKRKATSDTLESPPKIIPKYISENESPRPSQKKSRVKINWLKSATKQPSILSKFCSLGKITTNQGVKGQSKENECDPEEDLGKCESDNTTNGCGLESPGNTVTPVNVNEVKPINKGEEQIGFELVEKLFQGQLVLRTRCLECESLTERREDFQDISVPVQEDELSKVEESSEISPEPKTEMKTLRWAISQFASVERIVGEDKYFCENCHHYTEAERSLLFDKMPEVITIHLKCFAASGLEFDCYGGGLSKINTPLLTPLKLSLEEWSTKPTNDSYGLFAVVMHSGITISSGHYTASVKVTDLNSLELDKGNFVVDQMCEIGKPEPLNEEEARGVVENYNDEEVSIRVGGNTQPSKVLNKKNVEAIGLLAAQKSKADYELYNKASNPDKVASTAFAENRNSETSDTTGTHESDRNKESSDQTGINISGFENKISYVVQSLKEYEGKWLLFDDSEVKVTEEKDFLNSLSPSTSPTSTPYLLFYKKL
Sequence of USP1 (construct USP1 (I-785, GG670, 671AA)/UAF1 (I-677)-Flag) (Q8TAF3 whole entry partner): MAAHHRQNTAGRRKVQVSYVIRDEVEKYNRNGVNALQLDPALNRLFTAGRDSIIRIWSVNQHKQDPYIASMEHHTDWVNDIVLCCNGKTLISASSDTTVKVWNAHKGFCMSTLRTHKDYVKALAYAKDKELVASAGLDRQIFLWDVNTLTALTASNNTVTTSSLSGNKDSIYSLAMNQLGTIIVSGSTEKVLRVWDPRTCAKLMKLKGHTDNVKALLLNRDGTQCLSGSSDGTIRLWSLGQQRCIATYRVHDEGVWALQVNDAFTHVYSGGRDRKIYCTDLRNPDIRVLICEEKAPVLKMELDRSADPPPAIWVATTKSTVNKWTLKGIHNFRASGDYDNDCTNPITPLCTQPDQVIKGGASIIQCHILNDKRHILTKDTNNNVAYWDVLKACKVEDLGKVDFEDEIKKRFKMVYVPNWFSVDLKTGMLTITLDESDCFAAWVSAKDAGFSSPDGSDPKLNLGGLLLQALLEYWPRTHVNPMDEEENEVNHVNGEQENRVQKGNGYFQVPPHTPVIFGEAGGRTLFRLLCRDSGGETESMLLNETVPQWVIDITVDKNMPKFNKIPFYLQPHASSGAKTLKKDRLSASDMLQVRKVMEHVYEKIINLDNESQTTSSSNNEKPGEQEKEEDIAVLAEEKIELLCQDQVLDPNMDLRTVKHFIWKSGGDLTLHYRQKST

Compared with `CC(C)c1ccccc1-c1ncc2[nH]c(=O)n(Cc3ccc(C(=O)N4CCC(F)(F)C4)cc3)c2n1` [Compound I-392, 9-(4-(3,3-difluoropyrrolidine-1-carbonyl)benzyl)-2-(2-isopropylphenyl)-7,9-dihydro-8H-purin-8-one], `CC(C)c1ccccc1-c1ncc2[nH]c(=O)n(Cc3ccc(C(=O)N4CC5(CCCO5)C4)cc3)c2n1` [Compound I-393, 9-(4-(5-oxa-2-azaspiro[3.4]octane-2-carbonyl)benzyl)-2-(2-isopropylphenyl)-7,9-dihydro-8H-purin-8-one] is higher in IC50: under 50 nM for the first, 200 to 2000 nM for the second.

Compared with `CC(C)c1ccccc1-c1ncc2[nH]c(=O)n(Cc3ccc(C(=O)N4CC5(CCOC5)C4)cc3)c2n1` [Compound I-394, 9-(4-(6-oxa-2-azaspiro[3.4]octane-2-carbonyl)benzyl)-2-(2-isopropylphenyl)-7,9-dihydro-8H-purin-8-one], `CC(C)c1ccccc1-c1ncc2[nH]c(=O)n(Cc3ccc(C(=O)N4CCCC45COC5)cc3)c2n1` [Compound I-411, 9-(4-(2-oxa-5-azaspiro[3.4]octane-5-carbonyl)benzyl)-2-(2-isopropylphenyl)-7,9-dihydro-8H-purin-8-one] is lower in IC50: 200 to 2000 nM for the first, under 50 nM for the second. The second is the more potent here.

`CC(C)c1ccccc1-c1ncc2[nH]c(=O)n(Cc3ccc(C(=O)N4CCC[C@@H]4C)cc3)c2n1` [Compound I-395, (S)-2-(2-isopropylphenyl)-9-(4-(2-methylpyrrolidine-1-carbonyl)benzyl)-7,9-dihydro-8H-purin-8-one] and `CC(C)c1ccccc1-c1ncc2[nH]c(=O)n(Cc3ccc(C(=O)N4CCCCC4C)cc3)c2n1` (centres unmarked) [Compound I-398, 2-(2-isopropylphenyl)-9-(4-(2-methylpiperidine-1-carbonyl)benzyl)-7,9-dihydro-8H-purin-8-one] cannot be ordered by IC50: under 50 nM for the first, under 50 nM for the second.

`COC[C@@H]1CCCN1C(=O)c1ccc(Cn2c(=O)[nH]c3cnc(-c4ccccc4C(C)C)nc32)cc1` [Compound I-396, (S)-2-(2-isopropylphenyl)-9-(4-(2-(methoxymethyl)pyrrolidine-1-carbonyl)benzyl)-7,9-dihydro-8H-purin-8-one] and `COC[C@H]1CCCN1C(=O)c1ccc(Cn2c(=O)[nH]c3cnc(-c4ccccc4C(C)C)nc32)cc1` [Compound I-403, (R)-2-(2-isopropylphenyl)-9-(4-(2-(methoxymethyl)pyrrolidine-1-carbonyl)benzyl)-7,9-dihydro-8H-purin-8-one] fall in the same range of IC50: 200 to 2000 nM for the first, 200 to 2000 nM for the second.

First: CCC1CCCCN1C(=O)c1ccc(Cn2c(=O)[nH]c3cnc(-c4ccccc4C(C)C)nc32)cc1 (centres unmarked) [Compound I-397, 9-(4-(2-ethylpiperidine-1-carbonyl)benzyl)-2-(2-isopropylphenyl)-7,9-dihydro-8H-purin-8-one]
Second: COCC1CCCCN1C(=O)c1ccc(Cn2c(=O)[nH]c3cnc(-c4ccccc4C(C)C)nc32)cc1 (centres unmarked) [Compound I-400, 2-(2-isopropylphenyl)-9-(4-(2-(methoxymethyl)piperidine-1-carbonyl)benzyl)-7,9-dihydro-8H-purin-8-one]
The IC50 of the first is lower: under 50 nM for the first, 50 to 200 nM for the second.

First: CC1CCCN(C(=O)c2ccc(Cn3c(=O)[nH]c4cnc(-c5ccccc5C(C)C)nc43)cc2)C1 (centres unmarked) [Compound I-399, 2-(2-isopropylphenyl)-9-(4-(3-methylpiperidine-1-carbonyl)benzyl)-7,9-dihydro-8H-purin-8-one]
Second: COC1CCCN(C(=O)c2ccc(Cn3c(=O)[nH]c4cnc(-c5ccccc5C(C)C)nc43)cc2)C1 (centres unmarked) [Compound I-401, 2-(2-isopropylphenyl)-9-(4-(3-methoxypiperidine-1-carbonyl)benzyl)-7,9-dihydro-8H-purin-8-one]
The IC50 of the first is lower: under 50 nM for the first, 50 to 200 nM for the second. The first is the more potent here.

`CC(C)c1ccccc1-c1ncc2[nH]c(=O)n(Cc3ccc(C(=O)N(C)C4CCOC4)cc3)c2n1` (centres unmarked) [Compound I-402, 4-((2-(2-isopropylphenyl)-8-oxo-7,8-dihydro-9H-purin-9-yl)methyl)-N-methyl-N-(tetrahydrofuran-3-yl)benzamide] and `CC(C)c1ccccc1-c1ncc2[nH]c(=O)n(Cc3ccc(C(=O)N4CCOC[C@H]4C)cc3)c2n1` [Compound I-404, (R)-2-(2-isopropylphenyl)-9-(4-(3-methylmorpholine-4-carbonyl)benzyl)-7,9-dihydro-8H-purin-8-one] fall in the same range of IC50: 200 to 2000 nM for the first, 200 to 2000 nM for the second.

First: CC(C)c1ccccc1-c1ncc2[nH]c(=O)n(Cc3ccc(C(=O)N4CCOC[C@@H]4C)cc3)c2n1 [Compound I-405, (S)-2-(2-isopropylphenyl)-9-(4-(3-methylmorpholine-4-carbonyl)benzyl)-7,9-dihydro-8H-purin-8-one]
Second: CC(C)c1ccccc1-c1ncc2[nH]c(=O)n(Cc3ccc(C(=O)N4CCN(C)CC4)cc3)c2n1 [Compound I-410, 2-(2-isopropylphenyl)-9-(4-(4-methylpiperazine-1-carbonyl)benzyl)-7,9-dihydro-8H-purin-8-one]
The IC50 of the first is lower: 200 to 2000 nM for the first, over 2000 nM for the second.

`CC(C)c1ccccc1-c1ncc2[nH]c(=O)n(Cc3ccc(C(=O)N(C)CC(F)(F)F)cc3)c2n1` [Compound I-406, 4-((2-(2-isopropylphenyl)-8-oxo-7,8-dihydro-9H-purin-9-yl)methyl)-N-methyl-N-(2,2,2-trifluoroethyl)benzamide] and `COCCN(C)C(=O)c1ccc(Cn2c(=O)[nH]c3cnc(-c4ccccc4C(C)C)nc32)cc1` [Compound I-407, 4-((2-(2-isopropylphenyl)-8-oxo-7,8-dihydro-9H-purin-9-yl)methyl)-N-(2-methoxyethyl)-N-methylbenzamide] fall in the same range of IC50: 50 to 200 nM for the first, 50 to 200 nM for the second.

`CC(C)c1ccccc1-c1ncc2[nH]c(=O)n(Cc3ccc(C(=O)NCCN(C)C)cc3)c2n1` [Compound I-408, N-(2-(dimethylamino)ethyl)-4-((2-(2-isopropylphenyl)-8-oxo-7,8-dihydro-9H-purin-9-yl)methyl)benzamide] and `CC(C)c1ccccc1-c1ncc2[nH]c(=O)n(Cc3ccc(C(=O)NCCN4CCCCC4)cc3)c2n1` [Compound I-409, 4-((2-(2-isopropylphenyl)-8-oxo-7,8-dihydro-9H-purin-9-yl)methyl)-N-(2-(piperidin-1-yl)ethyl)benzamide] cannot be ordered by IC50: over 2000 nM for the first, over 2000 nM for the second.

`COc1ncccc1-c1ncc2[nH]c(=O)n(Cc3ccc(-c4nc(C(F)(F)F)cn4C)cc3)c2n1` [Compound I-412, 2-(2-methoxypyridin-3-yl)-9-(4-(1-methyl-4-(trifluoromethyl)-1H-imidazol-2-yl)benzyl)-7,9-dihydro-8H-purin-8-one] and `CCOc1ncccc1-c1ncc2[nH]c(=O)n(Cc3ccc(-c4nc(C(F)(F)F)cn4C)cc3)c2n1` [Compound I-421, 2-(2-ethoxypyridin-3-yl)-9-(4-(1-methyl-4-(trifluoromethyl)-1H-imidazol-2-yl)benzyl)-7,9-dihydro-8H-purin-8-one] cannot be ordered by IC50: under 50 nM for the first, under 50 nM for the second.

First: CCCOc1ncccc1-c1ncc2[nH]c(=O)n(Cc3ccc(-c4nc(C(F)(F)F)cn4C)cc3)c2n1 [Compound I-413, 9-(4-(1-methyl-4-(trifluoromethyl)-1H-imidazol-2-yl)benzyl)-2-(2-propoxypyridin-3-yl)-7,9-dihydro-8H-purin-8-one]
Second: COCCOc1ncccc1-c1ncc2[nH]c(=O)n(Cc3ccc(-c4nc(C(F)(F)F)cn4C)cc3)c2n1 [Compound I-423, 2-(2-(2-methoxyethoxy)pyridin-3-yl)-9-(4-(1-methyl-4-(trifluoromethyl)-1H-imidazol-2-yl)benzyl)-7,9-dihydro-8H-purin-8-one]
The IC50 of the first is lower: under 50 nM for the first, 50 to 200 nM for the second. The first is the more potent here.

`Cn1cc(C(F)(F)F)nc1-c1ccc(Cn2c(=O)[nH]c3cnc(-c4cccnc4OCC4CC4)nc32)cc1` [Compound I-414, 2-(2-(cyclopropylmethoxy)pyridin-3-yl)-9-(4-(1-methyl-4-(trifluoromethyl)-1H-imidazol-2-yl)benzyl)-7,9-dihydro-8H-purin-8-one] and `Cn1cc(C(F)(F)F)nc1-c1ccc(Cn2c(=O)[nH]c3cnc(-c4cccnc4OC4CC4)nc32)cc1` [Compound I-420, 2-(2-cyclopropoxypyridin-3-yl)-9-(4-(1-methyl-4-(trifluoromethyl)-1H-imidazol-2-yl)benzyl)-7,9-dihydro-8H-purin-8-one] cannot be ordered by IC50: under 50 nM for the first, under 50 nM for the second.

`CCOCCOc1ncccc1-c1ncc2[nH]c(=O)n(Cc3ccc(-c4nc(C(F)(F)F)cn4C)cc3)c2n1` [Compound I-415, 2-(2-(2-ethoxyethoxy)pyridin-3-yl)-9-(4-(1-methyl-4-(trifluoromethyl)-1H-imidazol-2-yl)benzyl)-7,9-dihydro-8H-purin-8-one] and `CC(C)COc1ncccc1-c1ncc2[nH]c(=O)n(Cc3ccc(-c4nc(C(F)(F)F)cn4C)cc3)c2n1` [Compound I-422, 2-(2-isobutoxypyridin-3-yl)-9-(4-(1-methyl-4-(trifluoromethyl)-1H-imidazol-2-yl)benzyl)-7,9-dihydro-8H-purin-8-one] cannot be ordered by IC50: under 50 nM for the first, under 50 nM for the second.

`CC(C)Oc1ncccc1-c1ncc2[nH]c(=O)n(Cc3ccc(-c4nc(C(F)(F)F)cn4C)cc3)c2n1` [Compound I-416, 2-(2-isopropoxypyridin-3-yl)-9-(4-(1-methyl-4-(trifluoromethyl)-1H-imidazol-2-yl)benzyl)-7,9-dihydro-8H-purin-8-one] and `CCC(C)Oc1ncccc1-c1ncc2[nH]c(=O)n(Cc3ccc(-c4nc(C(F)(F)F)cn4C)cc3)c2n1` (centres unmarked) [Compound I-417, 2-(2-(sec-butoxy)pyridin-3-yl)-9-(4-(1-methyl-4-(trifluoromethyl)-1H-imidazol-2-yl)benzyl)-7,9-dihydro-8H-purin-8-one] cannot be ordered by IC50: under 50 nM for the first, under 50 nM for the second.

`CC(Oc1ncccc1-c1ncc2[nH]c(=O)n(Cc3ccc(-c4nc(C(F)(F)F)cn4C)cc3)c2n1)C(F)(F)F` (centres unmarked) [Compound I-418, 9-(4-(1-methyl-4-(trifluoromethyl)-1H-imidazol-2-yl)benzyl)-2-(2-((1,1,1-trifluoropropan-2-yl)oxy)pyridin-3-yl)-7,9-dihydro-8H-purin-8-one] and `Cn1cc(C(F)(F)F)nc1-c1ccc(Cn2c(=O)[nH]c3cnc(-c4cccnc4OC4CCC4)nc32)cc1` [Compound I-419, 2-(2-cyclobutoxypyridin-3-yl)-9-(4-(1-methyl-4-(trifluoromethyl)-1H-imidazol-2-yl)benzyl)-7,9-dihydro-8H-purin-8-one] cannot be ordered by IC50: under 50 nM for the first, under 50 nM for the second.
